Data published in patent US12344597B2, “Alkoxy-substituted pyridinyl derivatives as LPA1 receptor antagonists and their use in the treatment of fibrosis” (IDORSIA PHARMACEUTICALS LTD, priority 2018, dated 2025).

Each molecule was assayed against human LPA1 receptor (Homo sapiens (Human), UniProt Q92633) (assay: Beta-arrestin recruitment assay to determine IC50 values for human LPAR1). Settings: antagonist mode, Tango EDG2-bla U2OS cells, LPA 18:1 500 nM final.
Chain of human LPA1 receptor (Q92633 whole entry): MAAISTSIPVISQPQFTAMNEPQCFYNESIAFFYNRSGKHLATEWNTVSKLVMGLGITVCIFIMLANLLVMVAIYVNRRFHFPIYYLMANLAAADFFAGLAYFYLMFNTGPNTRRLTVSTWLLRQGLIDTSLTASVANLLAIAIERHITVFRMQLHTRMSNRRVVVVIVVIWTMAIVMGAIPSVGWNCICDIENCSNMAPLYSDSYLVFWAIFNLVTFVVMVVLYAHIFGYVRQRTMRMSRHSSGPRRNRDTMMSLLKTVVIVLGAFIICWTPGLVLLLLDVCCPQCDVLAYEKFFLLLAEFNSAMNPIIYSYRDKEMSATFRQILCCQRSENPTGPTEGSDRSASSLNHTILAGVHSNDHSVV
Assay type: cell-based
From the text: Beta-Arrestin Recruitment Assay to Determine IC50 Values for Human LPAR1
The Tango™ EDG2-bla U2OS cells are obtained from Invitrogen. These cells contain the human LPA1 receptor cDNA linked to a TEV protease site and a Gal4-VP16 transcription factor integrated into the Tango™ GPCR-bla U2OS parental cell line. This parental cell line stably expresses a beta-arrestin/TEV protease fusion protein and the beta-lactamase (bla) reporter gene under the control of a UAS response element. Upon LPA (agonist) binding, LPA1 receptor gets activated, leading to arrestin-protease recruitment and proteolytic release of the transcription factor: The transcription factor then regulates transcription of a beta-lactamase reporter construct, which is measured upon addition of the live-cell substrate.
10′000 Tango™ EDG2-bla U2OS cells are seeded in a 384-well black with clear bottom plate in 30 μl Freestyle 293 Expression Medium (Invitrogen) and incubated for 20 h at 37° C., 5% CO2. […] IC50 is the concentration of antagonist inhibiting 50% of the maximal response.
Work on Cc1ccc(NC(=O)C2(c3ccccc3C3CCCCC3)CNC2)c(OC(F)F)n1 [Ex 27, 3-(2-cyclohexylphenyl)-N-(2-(difluoromethoxy)-6-methylpyridin-3-yl)azetidine-3-carboxamide] yielded an IC50 of 13 nM. In the case of Cc1ccc(NC(=O)C2(c3ccccc3C3CCOCC3)CN(c3nc(C(=O)O)co3)C2)c(OC(F)F)n1 [Ex 32, 2-(3-((2-(difluoromethoxy)-6-methylpyridin-3-yl)carbamoyl)-3-(2-(tetrahydro-2H-pyran-4-yl)phenyl)azetidin-1-yl)oxazole-4-carboxylic acid], the IC50 is reported as 447 nM. CC(=O)N(O)CCC(=O)N1CC(C(=O)Nc2ccc(C)nc2OC(F)F)(c2ccccc2C(C)C)C1 [Ex 12-132, N-(2-(difluoromethoxy)-6-methylpyridin-3-yl)-1-(3-(N-hydroxyacetamido)propanoyl)-3-(2-isopropylphenyl)azetidine-3-carboxamide] showed an IC50 of 35 nM. Cc1ccc(NC(=O)C2(c3ccccc3C(C)C)CCN(C(=O)CC(=O)O)CC2)c(OC(F)F)n1 [Ex 12-66, 3-(4-((2-(difluoromethoxy)-6-methylpyridin-3-yl)carbamoyl)-4-(2-isopropylphenyl)piperidin-1-yl)-3-oxopropanoic acid] was tested, and the IC50 was 12 nM. In the case of CCOC(=O)c1coc(N2CC(C(=O)Nc3cccnc3OC(F)F)(c3ccccc3C(C)C)C2)n1 [Ex 18-29, ethyl 2-(3-((2-(difluoromethoxy)pyridin-3-yl)carbamoyl)-3-(2-isopropylphenyl)azetidin-1-yl)oxazole-4-carboxylate], the IC50 is reported as 71 nM. For COC(=O)C1(CN2CC(C(=O)Nc3ccc(C)nc3OC(F)F)(c3ccccc3C(C)C)C2)CC1 [Ex 11-26, methyl 1-((3-((2-(difluoromethoxy)-6-methylpyridin-3-yl)carbamoyl)-3-(2-isopropylphenyl)azetidin-1-yl)methyl)cyclopropane-1-carboxylate], the IC50 was 400 nM. C=C(C)C(=O)OCCNC(=O)N1CCC(C(=O)Nc2ccc(C)nc2OC(F)F)(c2ccccc2C(C)C)CC1 [Ex 17-21, 2-(4-((2-(difluoromethoxy)-6-methylpyridin-3-yl)carbamoyl)-4-(2-isopropylphenyl)piperidine-1-carboxamido)ethyl methacrylate] gave an IC50 of 5 nM. Work on Cc1ccc(NC(=O)C2(c3ccccc3C(C)C)CN(C(=O)NCCC(=O)O)C2)c(OC(F)F)n1 [Ex 17-5, 3-(3-((2-(difluoromethoxy)-6-methylpyridin-3-yl)carbamoyl)-3-(2-isopropylphenyl)azetidine-1-carboxamido)propanoic acid] yielded an IC50 of 41 nM. For COc1nc(Cl)ccc1NC(=O)C1(c2ccccc2C(C)C)CNC1 [Ex 5, N-(6-chloro-2-methoxypyridin-3-yl)-3-(2-isopropylphenyl)azetidine-3-carboxamide], the IC50 was 594 nM. For O=C(Nc1ncc(Cl)cc1OC(F)F)C1(c2ccccc2C2CCCC2)CNC1 [Ex 76, N-(5-chloro-3-(difluoromethoxy)pyridin-2-yl)-3-(2-cyclopentylphenyl)azetidine-3-carboxamide], the IC50 was 19 nM. Cc1ccc(NC(=O)C2(c3ccccc3C(C)C)CN(S(=O)(=O)NC(C)C)C2)c(OC(F)F)n1 [Ex 15-12, N-(2-(difluoromethoxy)-6-methylpyridin-3-yl)-3-(2-isopropylphenyl)-1-(N-isopropylsulfamoyl)azetidine-3-carboxamide] was tested, and the IC50 was 25 nM. With Cc1ccc(NC(=O)C2(c3ccccc3C(C)C)CCN(S(=O)(=O)CCC(=O)OCc3ccccc3)CC2)c(OC(F)F)n1 [Ex 13-7, benzyl 3-((4-((2-(difluoromethoxy)-6-methylpyridin-3-yl)carbamoyl)-4-(2-isopropylphenyl)piperidin-1-yl)sulfonyl)propanoate] the IC50 was 17 nM. In the case of “2-(2-(3-((2-(difluoromethoxy)-6-methylpyridin-3-yl)carbamoyl)-3-(2-isopropylphenyl)azetidin-1-yl)ethoxy)-2-methylpropanoic acid [Ex 40]”, the IC50 is reported as 29 nM.
